Test [1] addresses T1, Drosophila IntS4-IntS9-IntS11 complex (Drosophila ICM, Integrator cleavage module) (Drosophila melanogaster, UniProt Q95TS5+Q9VAH9+Q9W3E1).
T1 construct: IntS4 (N-terminal 6xHis), IntS9 and IntS11 co-expressed in Tni insect cells; IP6 co-purified from the host; free IntS9 N-terminus contacts IP6
In words: cryo-EM structure ([…] Å); LC-MS/MS of co-purified ligand. Format: binding. To be noted: ligand co-purified from insect cells, none added; site at interface of IntS4, IntS9 and IntS11, 55 Å from the IntS11 active site.

Test [2] addresses T2, human INTS4-INTS9-INTS11 complex (human ICM) (Homo sapiens, UniProt Q5TA45+Q96HW7+Q9NV88, Q5TA45:K462E).
T2 construct: three-subunit complex purified from insect cell expression
In words: LC-MS/MS of co-purified ligand. Format: binding. To be noted: ligand co-purified from insect cells, none added; site mutant, gel filtration profile comparable to wild type.

The target of test [3] is T3, Drosophila IntS4-IntS9-IntS11 complex (Drosophila ICM, Integrator cleavage module) (Drosophila melanogaster, UniProt Q95TS5+Q9VAH9+Q9W3E1, Q9VAH9:K462E).
T3 construct: IntS4 (N-terminal 6xHis), IntS9 and IntS11 co-expressed in Tni insect cells; IP6 co-purified from the host; free IntS9 N-terminus contacts IP6
Nature of the test: LC-MS/MS of co-purified ligand. In kind it is binding. To be noted: ligand co-purified from insect cells, none added; site mutant, gel filtration profile comparable to wild type. For orientation: Size exclusion chromatography separates by hydrodynamic size, large species first.

Test [4] has as its target T4, human INTS4-INTS9-INTS11 complex (human ICM) (Homo sapiens, UniProt Q5TA45+Q96HW7+Q9NV88, Q9NV88:K510E/Q9NV88:R511E).
T4 construct: three-subunit complex purified from insect cell expression
In words: LC-MS/MS of co-purified ligand. The following applies: ligand co-purified from insect cells, none added; site mutant, gel filtration profile comparable to wild type. In kind it is binding.

Test [5] deals with T5, human INTS4-INTS9-INTS11 complex (human ICM) (Homo sapiens, UniProt Q5TA45+Q96HW7+Q9NV88).
T5 construct: three-subunit complex purified from insect cell expression
In words: LC-MS/MS of co-purified ligand; IP6 also fitted into published human ICM map (EMDB […]). The following applies: ligand co-purified from insect cells, none added. In kind it is binding.

Test [6] concerns the target T6, Drosophila IntS4 (N-terminal 6xHis-tagged), subunit of the Integrator cleavage module (Drosophila (D. melanogaster), UniProt Q9W3E1 1-1022).
T6 construct: Integrator complex subunit 4 (IntS4), Drosophila; Residues beyond 570 (CTD) were not modelled in the structure; also called Integrator subunit 4
T6 sequence: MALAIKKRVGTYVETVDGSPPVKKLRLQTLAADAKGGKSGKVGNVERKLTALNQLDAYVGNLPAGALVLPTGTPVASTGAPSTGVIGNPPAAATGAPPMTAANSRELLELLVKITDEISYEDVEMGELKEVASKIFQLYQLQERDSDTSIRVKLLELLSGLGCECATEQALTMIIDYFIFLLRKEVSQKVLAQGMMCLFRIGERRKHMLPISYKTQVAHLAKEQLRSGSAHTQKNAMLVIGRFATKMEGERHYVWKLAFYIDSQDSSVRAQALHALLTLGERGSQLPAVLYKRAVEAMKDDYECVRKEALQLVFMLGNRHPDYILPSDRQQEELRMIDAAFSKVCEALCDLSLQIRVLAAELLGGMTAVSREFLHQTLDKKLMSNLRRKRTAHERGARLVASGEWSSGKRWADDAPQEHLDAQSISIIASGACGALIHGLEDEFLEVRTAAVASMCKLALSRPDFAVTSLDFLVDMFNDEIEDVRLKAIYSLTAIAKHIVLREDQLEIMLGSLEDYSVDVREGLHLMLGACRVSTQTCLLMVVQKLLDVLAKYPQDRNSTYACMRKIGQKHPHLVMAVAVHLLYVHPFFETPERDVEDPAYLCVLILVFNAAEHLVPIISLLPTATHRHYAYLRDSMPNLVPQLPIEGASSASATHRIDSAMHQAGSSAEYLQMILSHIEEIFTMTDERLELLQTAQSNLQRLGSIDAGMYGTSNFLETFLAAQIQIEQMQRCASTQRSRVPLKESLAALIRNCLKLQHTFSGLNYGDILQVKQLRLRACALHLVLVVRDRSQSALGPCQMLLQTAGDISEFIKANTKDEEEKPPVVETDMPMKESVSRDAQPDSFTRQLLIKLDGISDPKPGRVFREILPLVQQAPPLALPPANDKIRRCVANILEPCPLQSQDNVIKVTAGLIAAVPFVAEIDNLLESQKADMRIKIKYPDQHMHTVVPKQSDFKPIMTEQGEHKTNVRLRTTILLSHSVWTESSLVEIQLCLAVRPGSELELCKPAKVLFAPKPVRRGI
Nature of the test: SEC; gel filtration (Hiload 16/60 Superdex 200) of wild-type and K462E mutant Drosophila ICM co-expressed in insect cells, after nickel affinity; SDS gel of the complex. The following applies: both partners purified.

The target in test [7] is T7, Drosophila IntS9, subunit of the Integrator cleavage module (Drosophila (D. melanogaster), UniProt Q95TS5 1-654).
T7 construct: Integrator complex subunit 9 (IntS9), Drosophila; Cloned into the pFL acceptor vector together with IntS11; no tag is stated; also called Integrator subunit 9
T7 sequence: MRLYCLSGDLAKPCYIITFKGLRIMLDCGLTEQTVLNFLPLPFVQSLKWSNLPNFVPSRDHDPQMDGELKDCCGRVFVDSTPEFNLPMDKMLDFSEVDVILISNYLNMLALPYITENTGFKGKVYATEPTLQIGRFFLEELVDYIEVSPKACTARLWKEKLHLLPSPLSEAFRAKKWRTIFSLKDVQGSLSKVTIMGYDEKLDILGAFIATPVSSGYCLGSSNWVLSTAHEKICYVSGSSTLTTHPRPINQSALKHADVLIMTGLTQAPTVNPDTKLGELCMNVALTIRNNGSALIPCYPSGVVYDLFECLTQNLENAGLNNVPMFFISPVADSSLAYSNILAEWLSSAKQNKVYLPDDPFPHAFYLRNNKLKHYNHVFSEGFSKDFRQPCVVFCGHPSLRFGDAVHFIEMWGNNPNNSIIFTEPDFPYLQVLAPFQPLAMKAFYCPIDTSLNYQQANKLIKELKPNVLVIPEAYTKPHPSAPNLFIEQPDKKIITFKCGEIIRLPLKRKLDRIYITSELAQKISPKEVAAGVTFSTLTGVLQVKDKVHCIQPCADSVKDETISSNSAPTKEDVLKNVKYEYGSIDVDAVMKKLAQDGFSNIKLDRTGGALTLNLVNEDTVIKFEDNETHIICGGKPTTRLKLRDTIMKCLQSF
The test is described as above. To be noted: both partners purified.

T1 sequence (Q9VAH9 whole entry, one chain of several): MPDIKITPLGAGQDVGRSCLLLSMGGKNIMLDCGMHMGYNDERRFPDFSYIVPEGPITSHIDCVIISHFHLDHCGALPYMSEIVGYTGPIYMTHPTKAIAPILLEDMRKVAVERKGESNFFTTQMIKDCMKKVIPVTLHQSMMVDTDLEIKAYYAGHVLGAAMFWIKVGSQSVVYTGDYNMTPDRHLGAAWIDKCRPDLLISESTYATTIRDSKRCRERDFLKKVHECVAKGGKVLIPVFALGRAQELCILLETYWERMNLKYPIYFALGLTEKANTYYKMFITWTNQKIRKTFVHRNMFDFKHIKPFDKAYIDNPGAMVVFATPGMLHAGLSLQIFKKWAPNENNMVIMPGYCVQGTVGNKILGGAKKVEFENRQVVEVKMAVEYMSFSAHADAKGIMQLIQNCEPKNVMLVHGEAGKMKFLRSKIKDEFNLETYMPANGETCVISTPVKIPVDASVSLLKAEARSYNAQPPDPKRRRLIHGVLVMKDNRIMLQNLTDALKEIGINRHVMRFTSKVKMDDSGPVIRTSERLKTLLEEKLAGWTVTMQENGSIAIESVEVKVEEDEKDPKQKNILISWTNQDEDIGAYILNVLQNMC
T4 sequence (Q96HW7 whole entry): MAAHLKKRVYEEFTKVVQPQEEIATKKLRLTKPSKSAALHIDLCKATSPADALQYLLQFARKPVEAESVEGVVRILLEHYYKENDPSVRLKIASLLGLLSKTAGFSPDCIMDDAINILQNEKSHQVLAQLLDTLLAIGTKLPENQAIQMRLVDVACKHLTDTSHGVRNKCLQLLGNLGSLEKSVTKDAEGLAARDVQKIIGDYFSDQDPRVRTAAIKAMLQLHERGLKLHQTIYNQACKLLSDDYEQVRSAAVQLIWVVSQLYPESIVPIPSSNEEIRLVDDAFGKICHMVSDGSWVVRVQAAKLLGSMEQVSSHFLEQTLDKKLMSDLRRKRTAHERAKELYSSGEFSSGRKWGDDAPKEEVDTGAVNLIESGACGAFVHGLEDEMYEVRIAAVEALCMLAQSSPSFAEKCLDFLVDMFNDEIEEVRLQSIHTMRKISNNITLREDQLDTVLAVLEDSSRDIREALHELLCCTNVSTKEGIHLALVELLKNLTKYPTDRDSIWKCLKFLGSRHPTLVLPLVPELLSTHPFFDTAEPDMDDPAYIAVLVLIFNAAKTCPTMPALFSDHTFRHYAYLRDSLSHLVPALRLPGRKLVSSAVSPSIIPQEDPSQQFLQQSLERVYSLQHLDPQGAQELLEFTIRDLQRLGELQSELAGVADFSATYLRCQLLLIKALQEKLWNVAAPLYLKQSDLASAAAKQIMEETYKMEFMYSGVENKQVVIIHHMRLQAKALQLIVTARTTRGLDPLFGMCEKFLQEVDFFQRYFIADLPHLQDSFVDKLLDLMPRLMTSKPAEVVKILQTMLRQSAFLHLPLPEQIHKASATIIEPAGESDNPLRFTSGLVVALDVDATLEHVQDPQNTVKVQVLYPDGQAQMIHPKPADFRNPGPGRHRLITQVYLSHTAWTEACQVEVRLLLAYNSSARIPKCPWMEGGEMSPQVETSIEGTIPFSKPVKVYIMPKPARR
T4 sequence (Q9NV88 whole entry K510E/R511E): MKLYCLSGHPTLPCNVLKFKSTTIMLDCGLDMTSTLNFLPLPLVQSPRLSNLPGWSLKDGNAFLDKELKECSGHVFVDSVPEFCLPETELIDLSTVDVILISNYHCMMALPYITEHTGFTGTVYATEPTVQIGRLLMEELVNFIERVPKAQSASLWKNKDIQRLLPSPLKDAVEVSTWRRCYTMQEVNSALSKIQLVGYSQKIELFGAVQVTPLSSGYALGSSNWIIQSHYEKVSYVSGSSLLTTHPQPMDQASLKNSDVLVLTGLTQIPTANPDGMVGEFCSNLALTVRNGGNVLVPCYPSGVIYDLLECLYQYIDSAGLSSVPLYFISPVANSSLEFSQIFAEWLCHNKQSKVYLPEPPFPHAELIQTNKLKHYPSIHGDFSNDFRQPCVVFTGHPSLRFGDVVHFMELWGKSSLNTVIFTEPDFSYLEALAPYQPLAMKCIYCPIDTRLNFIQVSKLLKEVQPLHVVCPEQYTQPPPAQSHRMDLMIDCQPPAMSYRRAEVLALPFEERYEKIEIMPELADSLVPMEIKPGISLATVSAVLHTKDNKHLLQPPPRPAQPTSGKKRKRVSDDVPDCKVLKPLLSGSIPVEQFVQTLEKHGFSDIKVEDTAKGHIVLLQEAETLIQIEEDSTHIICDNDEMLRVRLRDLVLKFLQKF
T4 sequence (Q5TA45 whole entry): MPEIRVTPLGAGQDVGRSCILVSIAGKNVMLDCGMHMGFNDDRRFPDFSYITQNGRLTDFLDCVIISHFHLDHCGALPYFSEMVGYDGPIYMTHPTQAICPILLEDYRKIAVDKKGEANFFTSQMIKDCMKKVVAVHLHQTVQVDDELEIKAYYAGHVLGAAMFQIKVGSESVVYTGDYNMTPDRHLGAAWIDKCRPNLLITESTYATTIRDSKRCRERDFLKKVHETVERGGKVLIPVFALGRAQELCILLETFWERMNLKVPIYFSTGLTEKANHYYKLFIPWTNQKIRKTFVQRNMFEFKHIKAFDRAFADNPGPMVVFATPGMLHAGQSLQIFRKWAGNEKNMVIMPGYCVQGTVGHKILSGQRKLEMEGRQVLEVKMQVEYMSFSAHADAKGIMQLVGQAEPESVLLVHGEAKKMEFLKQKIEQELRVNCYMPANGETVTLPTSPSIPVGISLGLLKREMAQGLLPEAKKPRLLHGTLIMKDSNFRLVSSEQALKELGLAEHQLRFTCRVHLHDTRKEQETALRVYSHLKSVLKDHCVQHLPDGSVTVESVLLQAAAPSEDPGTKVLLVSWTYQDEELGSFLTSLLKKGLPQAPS
T5 sequence (Q96HW7 whole entry): as the sequence (Q96HW7 whole entry) above
T5 sequence (Q9NV88 whole entry): as the sequence (Q9NV88 whole entry K510E/R511E) above, with E510K, E511R counted along it
T5 sequence (Q5TA45 whole entry): as the sequence (Q5TA45 whole entry) above
T2 sequence (Q96HW7 whole entry): as the sequence (Q96HW7 whole entry) above
T2 sequence (Q9NV88 whole entry): as the sequence (Q9NV88 whole entry K510E/R511E) above, with E510K, E511R counted along it
T2 sequence (Q5TA45 whole entry K462E): as the sequence (Q5TA45 whole entry) above, with K462E counted along it

On to `O=P(O)(O)O[C@H]1[C@H](OP(=O)(O)O)[C@@H](OP(=O)(O)O)[C@H](OP(=O)(O)O)[C@@H](OP(=O)(O)O)[C@H]1OP(=O)(O)O` [inositol hexakisphosphate], for which the “cryo-EM structure (2.74 Å); LC-MS/MS of co-purified ligand” value in test [1] is on record as “The structure of Drosophila ICM unexpectedly revealed the presence of an inositol hexakisphosphate (IP6) molecule”. Besides, the IP6 detection entry in test [2] is recorded as “we failed to detect IP6 in our mass spectrometry experiments on them”; in test [3], “we failed to detect IP6 in our mass spectrometry experiments on them”; in test [4], “human ICM sample containing the K510E/R511E double mutation in IntS9”. In addition, the “LC-MS/MS of co-purified ligand; IP6 also fitted into published human ICM map (EM)” value in test [5] is listed as “confirm by mass spectrometry the binding of IP6 to wild-type human or Drosophila ICM samples”.

B1: Drosophila IntS11 K462E (in the K462E mutant Drosophila ICM) (enzyme, Drosophila (D. melanogaster))
chain: MPDIKITPLGAGQDVGRSCLLLSMGGKNIMLDCGMHMGYNDERRFPDFSYIVPEGPITSHIDCVIISHFHLDHCGALPYMSEIVGYTGPIYMTHPTKAIAPILLEDMRKVAVERKGESNFFTTQMIKDCMKKVIPVTLHQSMMVDTDLEIKAYYAGHVLGAAMFWIKVGSQSVVYTGDYNMTPDRHLGAAWIDKCRPDLLISESTYATTIRDSKRCRERDFLKKVHECVAKGGKVLIPVFALGRAQELCILLETYWERMNLKYPIYFALGLTEKANTYYKMFITWTNQKIRKTFVHRNMFDFKHIKPFDKAYIDNPGAMVVFATPGMLHAGLSLQIFKKWAPNENNMVIMPGYCVQGTVGNKILGGAKKVEFENRQVVEVKMAVEYMSFSAHADAKGIMQLIQNCEPKNVMLVHGEAGKMKFLRSKIKDEFNLETYMPANGETCVISTPVKIPVDASVSLLEAEARSYNAQPPDPKRRRLIHGVLVMKDNRIMLQNLTDALKEIGINRHVMRFTSKVKMDDSGPVIRTSERLKTLLEEKLAGWTVTMQENGSIAIESVEVKVEEDEKDPKQKNILISWTNQDEDIGAYILNVLQNMC
notes: Integrator complex subunit 11 (IntS11), Drosophila, with K462E; also called K462E mutant of Drosophila ICM; source: insect cells, purified as ICM sample
Turning to B1, the binding result in test [6] and in test [7] was “binds” each time.

The values are drawn from article PMC9525679, “Inositol hexakisphosphate is required for Integrator function” (Nature Communications, 2022).
